Among the data in US11168073B2, “3,3-difluoroallylamines or salts thereof and pharmaceutical compositions comprising the same” (YUHAN CORPORATION, priority 2018, dated 2021) are IC50 values, retold here.

Format in all cases: biochemical
In assay [1] the target is T1, recombinant human VAP-1 (Homo sapiens, UniProt Q16853).
T1 construct: purchased R&D systems
T1 sequence (Q16853 1-763): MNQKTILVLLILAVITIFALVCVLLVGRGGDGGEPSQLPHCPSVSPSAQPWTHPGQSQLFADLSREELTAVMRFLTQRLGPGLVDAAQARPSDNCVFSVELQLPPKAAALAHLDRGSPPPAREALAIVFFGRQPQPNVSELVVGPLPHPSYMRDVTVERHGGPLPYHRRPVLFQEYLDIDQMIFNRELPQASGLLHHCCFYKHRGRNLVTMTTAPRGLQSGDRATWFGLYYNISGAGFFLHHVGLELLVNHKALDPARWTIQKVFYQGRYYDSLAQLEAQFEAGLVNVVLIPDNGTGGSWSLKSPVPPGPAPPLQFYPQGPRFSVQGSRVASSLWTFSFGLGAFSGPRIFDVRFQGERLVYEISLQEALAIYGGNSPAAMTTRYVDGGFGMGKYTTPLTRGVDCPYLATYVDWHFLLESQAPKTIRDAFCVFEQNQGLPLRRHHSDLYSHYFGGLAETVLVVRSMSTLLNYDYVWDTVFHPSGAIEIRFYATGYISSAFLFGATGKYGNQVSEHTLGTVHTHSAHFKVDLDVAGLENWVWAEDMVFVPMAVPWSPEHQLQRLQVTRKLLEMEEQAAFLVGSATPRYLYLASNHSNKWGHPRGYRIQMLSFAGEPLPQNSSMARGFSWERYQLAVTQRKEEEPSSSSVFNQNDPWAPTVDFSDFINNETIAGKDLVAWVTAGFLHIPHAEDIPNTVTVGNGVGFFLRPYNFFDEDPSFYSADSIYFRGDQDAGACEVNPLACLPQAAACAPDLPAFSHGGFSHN
The assay is described as follows: Activity evaluation on recombinant human VAP-1 (Amplex Red/HRP-coupled hydrogen peroxide assay, benzylamine substrate). Conditions: read-out: Inhibitory Activity (IC50, nM) human VAP-1. In short, it runs like this: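 Hydrogen peroxide from benzylamine (1 mM) oxidation by human recombinant VAP-1 detected via HRP-coupled Amplex Red (200 uM) fluorescence, kinetic over 1–2 h. Enzyme and compound preincubated 30 min at 37 °C, pH 7.4 phosphate; 8-point dose response, signal-rate decrease versus DMSO control fitted to four-parameter logistic for IC50.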

For assay [2], the target named is T2, recombinant human MAO-A (monoamine oxidase-A) (Homo sapiens, UniProt P21397).
T2 construct: purchased Sigma-Aldrich
T2 sequence (P21397 1-527): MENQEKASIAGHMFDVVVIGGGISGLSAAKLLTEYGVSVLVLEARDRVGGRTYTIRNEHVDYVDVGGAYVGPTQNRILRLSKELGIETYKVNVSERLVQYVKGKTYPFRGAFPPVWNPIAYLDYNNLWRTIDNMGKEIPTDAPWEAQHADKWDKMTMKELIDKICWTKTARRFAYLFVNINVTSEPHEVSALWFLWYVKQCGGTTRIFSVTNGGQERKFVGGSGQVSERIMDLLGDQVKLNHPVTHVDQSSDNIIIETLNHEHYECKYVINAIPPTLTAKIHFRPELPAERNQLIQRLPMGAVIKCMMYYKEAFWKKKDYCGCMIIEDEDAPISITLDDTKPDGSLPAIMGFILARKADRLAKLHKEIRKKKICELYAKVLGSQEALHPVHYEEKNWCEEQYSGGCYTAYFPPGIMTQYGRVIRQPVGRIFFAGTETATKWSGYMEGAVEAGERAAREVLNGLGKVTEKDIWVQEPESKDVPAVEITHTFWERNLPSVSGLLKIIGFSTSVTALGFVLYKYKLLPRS
Description: Activity evaluation on recombinant human MAO-A (Amplex Red/HRP-coupled assay, 0.5 mM tyramine substrate). Conditions: read-out: Inhibitory Activity (IC50, nM) MAO-A. In outline: (§1)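 Each oxidase is tested with its own substrate: MAO-A with 0.5 mM tyramine, MAO-B with 1 mM benzylamine, DAO with 1 mM putrescine. After 30 min enzyme-compound preincubation at 37 °C, Amplex Red (200 uM) plus HRP (1 U/mL) reports H2O2 as fluorescence; IC50 is fitted from eight-point curves.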

Assay [3] addresses T3, recombinant human MAO-B (monoamine oxidase-B) (Homo sapiens, UniProt P27338).
T3 construct: purchased Sigma-Aldrich
T3 sequence (P27338 1-520): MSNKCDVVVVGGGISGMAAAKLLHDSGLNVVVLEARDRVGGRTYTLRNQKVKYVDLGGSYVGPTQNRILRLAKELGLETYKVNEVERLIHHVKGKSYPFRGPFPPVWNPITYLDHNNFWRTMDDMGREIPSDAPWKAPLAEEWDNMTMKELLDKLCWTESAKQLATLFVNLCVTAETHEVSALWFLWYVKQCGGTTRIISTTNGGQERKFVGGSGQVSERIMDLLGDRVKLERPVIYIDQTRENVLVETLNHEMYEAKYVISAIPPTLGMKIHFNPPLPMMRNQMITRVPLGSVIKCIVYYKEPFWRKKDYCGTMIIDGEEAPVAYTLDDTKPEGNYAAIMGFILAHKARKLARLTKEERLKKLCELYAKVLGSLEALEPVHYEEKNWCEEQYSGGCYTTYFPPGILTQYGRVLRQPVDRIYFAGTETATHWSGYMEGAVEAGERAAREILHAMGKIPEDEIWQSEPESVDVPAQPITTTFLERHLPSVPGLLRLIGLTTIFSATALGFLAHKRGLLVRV
Description: Activity evaluation on recombinant human MAO-B (Amplex Red/HRP-coupled assay, 1 mM benzylamine substrate). The following applies: read-out: Inhibitory Activity (IC50, nM) MAO-B. In outline:
as §1

The target of assay [4] is T4, recombinant human DAO (diamine oxidase) (Homo sapiens, UniProt P19801).
T4 construct: purchased R&D systems
T4 sequence (P19801 20-751): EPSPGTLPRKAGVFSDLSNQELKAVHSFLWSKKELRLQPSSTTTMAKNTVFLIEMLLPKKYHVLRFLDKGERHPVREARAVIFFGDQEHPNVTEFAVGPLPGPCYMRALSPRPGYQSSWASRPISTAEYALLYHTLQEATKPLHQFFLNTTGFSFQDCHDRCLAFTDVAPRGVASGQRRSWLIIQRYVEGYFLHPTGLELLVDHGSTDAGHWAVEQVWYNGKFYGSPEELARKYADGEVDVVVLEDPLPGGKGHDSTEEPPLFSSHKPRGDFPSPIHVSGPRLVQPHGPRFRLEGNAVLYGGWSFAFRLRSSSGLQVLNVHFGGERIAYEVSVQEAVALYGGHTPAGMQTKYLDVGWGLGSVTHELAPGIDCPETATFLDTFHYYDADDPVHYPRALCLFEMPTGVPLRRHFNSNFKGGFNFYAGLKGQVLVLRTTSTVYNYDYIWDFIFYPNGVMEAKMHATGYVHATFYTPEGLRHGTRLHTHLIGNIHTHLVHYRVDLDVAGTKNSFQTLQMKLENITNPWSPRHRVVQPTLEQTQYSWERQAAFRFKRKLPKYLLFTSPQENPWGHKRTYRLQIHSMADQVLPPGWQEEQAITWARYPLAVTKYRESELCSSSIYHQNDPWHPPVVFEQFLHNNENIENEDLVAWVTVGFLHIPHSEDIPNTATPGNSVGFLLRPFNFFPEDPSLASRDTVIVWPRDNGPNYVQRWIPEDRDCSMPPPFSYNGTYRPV
Description: Activity evaluation on recombinant human DAO (Amplex Red/HRP-coupled assay, 1 mM putrescine substrate). Conditions: read-out: Inhibitory Activity (IC50, nM) DAO. In outline: as §1

Setting [5] is: recombinant human VAP-1, 30 min preincubation at 37° C., 1 mM benzylamine.
[6] abbreviates: recombinant human VAP-1, benzylamine substrate.

Counter-ions that a name gives are not always drawn. Like-named read-outs stand apart in the source and are kept apart here.

As usually defined, the IC50 is the concentration at which inhibition is half-maximal. On to `NCC(Cn1ncn(-c2ccnc(-c3ccc4c(c3)OCO4)c2)c1=O)=C(F)F` [Example 64, 2-[2-(aminomethyl)-3,3-difluoro-allyl]-4-[2-(1,3-benzodioxol-5-yl)-4-pyridyl]-1,2,4-triazol-3-one Trifluoroacetate], for which the IC50 in assay [1] (setting [5]) was 0.4 nM; in assay [2] (0.5 mM tyramine), greater than 100000 nM; in assay [3] (1 mM benzylamine) it was 480 nM; in assay [4] (1 mM putrescine), 270 nM.
`Cc1cc(Br)ccc1-n1cnn(CC(CN)=C(F)F)c1=O` [Example 6, 2-[2-(aminomethyl)-3,3-difluoro-allyl]-4-(4-bromo-2-methyl-phenyl)-1,2,4-triazol-3-one trifluoroacetate]: the IC50 was 9.4 nM in assay [1] (setting [5]), greater than 100000 nM in assay [2] (0.5 mM tyramine), greater than 100000 nM in assay [3] (1 mM benzylamine) and greater than 100000 nM in assay [4] (1 mM putrescine).
Turning to `NCC(Cn1ncn(-c2ccc(-c3ccc(C(F)(F)F)nc3)nc2)c1=O)=C(F)F` [Example 40, 2-[2-(aminomethyl)-3,3-difluoro-allyl]-4-[6-[6-(trifluoromethyl)-3-pyridyl]-3-pyridyl]-1,2,4-triazol-3-one Trifluoroacetate], the IC50 was 0.3 nM in assay [1] (setting [5]), greater than 100000 nM in assay [2] (0.5 mM tyramine), 200 nM in assay [3] (1 mM benzylamine) and 12 nM in assay [4] (1 mM putrescine).
With `CN(C)c1ccc(-c2cc(-n3cnn(CC(CN)=C(F)F)c3=O)ccn2)cn1` [Example 63, 2-[2-(aminomethyl)-3,3-difluoro-allyl]-4-[2-[6-(dimethylamino)-3-pyridyl]-4-pyridyl]-1,2,4-triazol-3-one Trifluoroacetate], the 50% inhibitory concentration (IC50) is 0.7 nM in assay [1] (setting [5]), greater than 100000 nM in assay [2] (0.5 mM tyramine), 16000 nM in assay [3] (1 mM benzylamine) and 110 nM in assay [4] (1 mM putrescine).
Turning to `CC(=O)N1CC=C(c2ccc(Cn3cnn(CC(CN)=C(F)F)c3=O)s2)CC1` [Example 125, 2-[2-(aminomethyl)-3,3-difluoro-allyl]-4-[[5-(1-acetyl-3,6-dihydro-2H-pyridin-4-yl)-2-thienyl]methyl]-1,2,4-triazol-3-one Trifluoroacetate], the IC50 in assay [1] (setting [5]) is 2.5 nM; in assay [2] (0.5 mM tyramine) it was greater than 100000 nM; in assay [3] (1 mM benzylamine) it was greater than 100000 nM; in assay [4] (1 mM putrescine), greater than 100000 nM.
As to `NCC(Cn1ncn(Cc2ccc(-c3cc(F)c4c(c3)CCC(=O)N4)s2)c1=O)=C(F)F` [Example 136, 6-[5-[[1-[2-(aminomethyl)-3,3-difluoro-allyl]-5-oxo-1,2,4-triazol-4-yl]methyl]-2-thienyl]-8-fluoro-3,4-dihydro-1H-quinolin-2-one Trifluoroacetate], the IC50 is 0.4 nM in assay [1] (setting [5]), greater than 100000 nM in assay [2] (0.5 mM tyramine), greater than 100000 nM in assay [3] (1 mM benzylamine) and greater than 100000 nM in assay [4] (1 mM putrescine).
`NCC(Cn1ncn(Cc2ccc(-c3cnc4c(c3)CCCN4)s2)c1=O)=C(F)F` [Example 145, 2-[2-(aminomethyl)-3,3-difluoro-allyl]-4-[[5-(5,6,7,8-tetrahydro-1,8-naphthyridin-3-yl)-2-thienyl]methyl]-1,2,4-triazol-3-one Ditrifluoroacetate]: the IC50 in assay [1] (setting [5]) is 0.8 nM; in assay [2] (0.5 mM tyramine), greater than 100000 nM; in assay [3] (1 mM benzylamine), greater than 100000 nM; in assay [4] (1 mM putrescine) it was greater than 100000 nM.
For the molecule `NCC(Cn1ncn(Cc2cc(Br)cs2)c1=O)=C(F)F` [Example 98, 2-[2-(aminomethyl)-3,3-difluoro-allyl]-4-[(4-bromo-2-thienyl)methyl]-1,2,4-triazol-3-one Trifluoroacetate], the IC50 was 23 nM in assay [1] (setting [5]), greater than 100000 nM in assay [2] (0.5 mM tyramine), 13900 nM in assay [3] (1 mM benzylamine) and 18600 nM in assay [4] (1 mM putrescine).
As to `Cc1c(-c2ccc(Cn3cnn(CC(CN)=C(F)F)c3=O)s2)ccc2c1NCCO2` [Example 139, 2-[2-(aminomethyl)-3,3-difluoro-allyl]-4-[[5-(5-methyl-3,4-dihydro-2H-1,4-benzoxazin-6-yl)-2-thienyl]methyl]-1,2,4-triazol-3-one Trifluoroacetate], the IC50 in assay [1] (setting [5]) worked out at 1 nM; in assay [2] (0.5 mM tyramine), 21000 nM; in assay [3] (1 mM benzylamine), 21000 nM; in assay [4] (1 mM putrescine), 73000 nM.
With `Cc1cc(C#Cc2ccc3c(c2)NCCO3)cnc1-n1cnn(CC(CN)=C(F)F)c1=O` [Example 243, 2-[2-(aminomethyl)-3,3-difluoro-allyl]-4-[5-[2-(3,4-dihydro-2H-1,4-benzoxazin-6-yl)ethynyl]-3-methyl-2-pyridyl]-1,2,4-triazol-3-one Ditrifluoroacetate], the IC50 was determined as 0.9 nM in assay [1] (setting [6]), 32700 nM in assay [2] (0.5 mM tyramine substrate), 2200 nM in assay [3] (1 mM benzylamine substrate) and 4600 nM in assay [4] (1 mM putrescine substrate).
The corresponding values for `CCn1cc(-c2ccc3sc(Cn4cnn(CC(CN)=C(F)F)c4=O)cc3c2)ccc1=O` [Example 207, 5-[2-[[1-[2-(aminomethyl)-3,3-difluoro-allyl]-5-oxo-1,2,4-triazol-4-yl]methyl]benzothiophen-5-yl]-1-ethyl-pyridin-2-one Trifluoroacetate] are 0.7 nM, greater than 100000 nM, greater than 100000 nM and greater than 100000 nM.
